According to PMC4907692, “Engineering vanilloid-sensitivity into the rat TRPV2 channel” (eLife, 2016):

Legend:
[1] = molecular target: T1, TRPV2 F472S/Q530E (Rattus norvegicus, UniProt Q9WUD2, F472S/Q530E); assay: Two-electrode voltage-clamp in Xenopus oocytes, TRPV2 F472S/Q530E; type: cell-based; details: 100 nM RTx
T1 construct: expressed in transfected cells; host or cells: Xenopus oocytes (cRNA injection)

[2] = molecular target: T2, TRPV1 triple mutant that left S512 intact (Rattus norvegicus, UniProt O35433, E570Q/M547L/T550L); assay: Two-electrode voltage-clamp in Xenopus oocytes, TRPV1 triple mutant with S512 intact; type: cell-based; details: 100 nM RTx
T2 construct: expressed in transfected cells; host or cells: Xenopus oocytes (cRNA injection)
T2 sequence (O35433 whole entry M547L/T550L/E570Q): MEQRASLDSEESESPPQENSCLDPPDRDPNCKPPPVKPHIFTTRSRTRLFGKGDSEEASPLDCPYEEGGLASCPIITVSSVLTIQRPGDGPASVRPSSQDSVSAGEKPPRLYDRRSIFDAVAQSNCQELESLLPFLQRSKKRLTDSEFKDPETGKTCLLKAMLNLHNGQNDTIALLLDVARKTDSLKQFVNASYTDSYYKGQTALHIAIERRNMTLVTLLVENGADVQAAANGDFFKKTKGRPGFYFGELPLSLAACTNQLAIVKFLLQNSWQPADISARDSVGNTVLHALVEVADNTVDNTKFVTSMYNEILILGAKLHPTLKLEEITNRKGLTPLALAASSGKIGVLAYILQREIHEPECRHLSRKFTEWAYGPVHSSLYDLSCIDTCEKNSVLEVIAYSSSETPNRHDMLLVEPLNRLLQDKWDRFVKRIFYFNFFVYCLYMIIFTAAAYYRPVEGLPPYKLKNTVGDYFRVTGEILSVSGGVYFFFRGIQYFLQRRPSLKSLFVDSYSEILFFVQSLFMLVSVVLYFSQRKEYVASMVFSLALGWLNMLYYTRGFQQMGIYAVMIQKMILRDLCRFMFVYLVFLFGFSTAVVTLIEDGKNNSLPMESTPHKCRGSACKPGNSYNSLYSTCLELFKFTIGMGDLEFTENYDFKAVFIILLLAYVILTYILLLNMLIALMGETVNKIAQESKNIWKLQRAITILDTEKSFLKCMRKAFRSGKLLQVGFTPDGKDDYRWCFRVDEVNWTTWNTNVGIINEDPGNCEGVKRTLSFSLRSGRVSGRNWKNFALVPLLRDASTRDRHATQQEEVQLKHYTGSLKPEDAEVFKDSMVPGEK
Description: (§1) To further investigate the putative vanilloid binding pocket in TRPV1, we inspected the cryo-EM structure of TRPV1, looking for residues that are located nearby to the putative RTx density (Figure 1B; regions/residues highlighted in yellow) and that differ between TRPV1 and TRPV2 channels (Figure 3—figure supplement 1; regions highlighted in magenta). […] To quantify the contribution of each of these residues to TRPV1 channel activation by RTx under our experimental conditions, we mutated each to the corresponding residue in TRPV2. We then expressed each construct in oocytes and used the two electrode voltage-clamp technique to study activation by RTx and by the non-specific TRPV channel activator 2-APB. We recorded time courses for channel activation by each agonist while stepping the membrane potential from −60 to +60 mV every 3 s from a holding potential of 0 mV using an external recording solution containing 100 mM KCl (internal K^+ concentration in a healthy oocyte is 100 mM) (Figure 3A, left). We also recorded current-voltage (I-V) relations by stepping over a wider range of voltages in the absence and presence of activators, or in the presence of ruthenium red (RR), a non-specific inhibitor of TRP channels (Figure 3A, right). […]

[3] = molecular target: T3, TRPV2 F472S/L507M (Rattus norvegicus, UniProt Q9WUD2, F472S/L507M); assay: Two-electrode voltage-clamp in Xenopus oocytes, TRPV2 F472S/L507M; type: cell-based; details: 100 nM RTx
T3 construct: expressed in transfected cells; host or cells: Xenopus oocytes (cRNA injection)
T3 sequence (Q9WUD2 whole entry F472S/L507M): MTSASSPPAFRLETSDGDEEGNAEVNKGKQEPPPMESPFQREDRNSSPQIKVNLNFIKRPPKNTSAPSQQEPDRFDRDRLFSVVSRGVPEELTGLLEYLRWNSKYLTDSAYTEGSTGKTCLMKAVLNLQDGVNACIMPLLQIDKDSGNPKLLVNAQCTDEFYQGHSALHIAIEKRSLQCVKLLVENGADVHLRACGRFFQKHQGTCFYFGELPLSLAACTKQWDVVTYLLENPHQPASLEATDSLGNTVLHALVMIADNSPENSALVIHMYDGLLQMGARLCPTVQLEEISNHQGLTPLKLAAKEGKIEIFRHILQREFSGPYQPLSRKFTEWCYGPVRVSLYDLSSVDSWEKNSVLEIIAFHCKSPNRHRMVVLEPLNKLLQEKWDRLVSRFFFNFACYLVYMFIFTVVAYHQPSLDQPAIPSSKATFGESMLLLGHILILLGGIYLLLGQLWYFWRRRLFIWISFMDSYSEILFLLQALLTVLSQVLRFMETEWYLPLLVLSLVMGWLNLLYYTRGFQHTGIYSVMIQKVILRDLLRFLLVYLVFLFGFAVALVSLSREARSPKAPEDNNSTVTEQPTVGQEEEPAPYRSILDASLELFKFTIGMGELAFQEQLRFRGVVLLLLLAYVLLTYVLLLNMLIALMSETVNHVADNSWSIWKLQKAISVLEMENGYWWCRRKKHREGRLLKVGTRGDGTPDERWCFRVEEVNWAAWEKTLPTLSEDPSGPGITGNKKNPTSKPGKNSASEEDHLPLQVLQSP
Description: as §1

[4] = molecular target: T4, TRPV2 triple mutant that retained F472 (Rattus norvegicus, UniProt Q9WUD2, L507M/L510T/Q530E); assay: Two-electrode voltage-clamp in Xenopus oocytes, TRPV2 triple mutant retaining F472; type: cell-based; details: 100 nM RTx, +60 mV, normalized to 4 mM 2-APB
T4 construct: expressed in transfected cells; host or cells: Xenopus oocytes (cRNA injection)
T4 sequence (Q9WUD2 whole entry L507M/L510T/Q530E): as the sequence (Q9WUD2 whole entry F472S/L507M) above, with S472F, L510T, Q530E counted along it
Description: as §1

[5] = tested on: TRPV2 triple mutants containing the F472S mutation; assay: Two-electrode voltage-clamp in Xenopus oocytes, TRPV2 triple mutants containing F472S; type: cell-based, rat; details: 100 nM RTx, +60 mV, normalized to 4 mM 2-APB
Description: as §1

[6] = molecular target: T5, TRPV1 S512F/E570Q (Rattus norvegicus, UniProt O35433, E570Q/S512F); assay: Two-electrode voltage-clamp in Xenopus oocytes, TRPV1 S512F/E570Q; type: cell-based; details: 100 nM RTx
T5 construct: expressed in transfected cells; host or cells: Xenopus oocytes (cRNA injection)
T5 sequence (O35433 whole entry S512F/E570Q): as the sequence (O35433 whole entry M547L/T550L/E570Q) above, with S512F, L547M, L550T counted along it
Description: as §1

[7] = molecular target: T6, N-terminus His-tagged TRPV1 (without GFP) (Rattus norvegicus, UniProt O35433); assay: 3H-RTx binding to intact S. cerevisiae cells expressing His-tagged TRPV1; details: 37°C, Figure 1F
T6 construct: expressed in transfected cells; host or cells: Saccharomyces cerevisiae (intact cells)
T6 sequence (O35433 whole entry): as the sequence (O35433 whole entry M547L/T550L/E570Q) above, with L547M, L550T, Q570E counted along it
Method: To evaluate whether these constructs were competent to bind vanilloids, we initially measured the binding of [^3H]-RTx ([Szallasi and Blumberg, 1999]; [Szallasi et al., 1999]) to intact yeast cells expressing each of the constructs.
S. cerevisiae cells overexpressing TRPV1 constructs to be used in ligand binding assays on intact cells (Figure 1E,F) were grown as for small scale expression trials. 24 hr after protein induction cells were spun down at 4000g, the supernatant was removed and the pellet resuspended in 1x PBS, normalizing OD600 to 75 for each sample, and aliquoted for storage at -80°C. ^3H-RTx binding assays on cells were performed at 37°C as previously described ([Feng et al., 2015]), but where non-specific binding of RTx was measured using cells expressing GFP alone. The binding of RTx to TRPV1 and TRPV2 in membranes (e.g. Figure 2A,B and 5C) was performed at 37°C unless otherwise stated using membranes prepared from large scale protein preparations of S. cerevisiae containing rat TRPV1 and TRPV2 with a 1D4 tag expressed using a constitutive promoter as in [Moiseenkova-Bell et al., 2008]. Data for binding of RTx to membranes was corrected for non-specific binding, determined using either excess non-radioactive ligand or heat inactivation of the protein, as previously described ([Feng et al., 2015]). […]

[8] = molecular target: T7, TRPV1 S512F (Rattus norvegicus, UniProt O35433, S512F); assay: Two-electrode voltage-clamp in Xenopus oocytes, TRPV1 S512F; type: cell-based; details: 100 nM RTx
T7 construct: expressed in transfected cells; host or cells: Xenopus oocytes (cRNA injection)
T7 sequence (O35433 whole entry S512F): as the sequence (O35433 whole entry M547L/T550L/E570Q) above, with S512F, L547M, L550T, Q570E counted along it
Description: as §1

T1 sequence (Q9WUD2 whole entry F472S/Q530E): as the sequence (Q9WUD2 whole entry F472S/L507M) above, with M507L, Q530E counted along it

SMILES: C=C(C)[C@]12C[C@@H](C)[C@@]34O[C@](Cc5ccccc5)(O[C@@H]1[C@@H]3C=C(COC(=O)Cc1ccc(O)c(OC)c1)C[C@]1(O)C(=O)C(C)=C[C@@H]41)O2 [RTx, resiniferatoxin]
- channel activation by RTx [1]: unresponsive
- channel activation by RTx [2]: retained sensitivity
- channel activation by RTx [3]: sensitive to RTx
- channel activation by RTx [4]: insensitive to RTx
- channel activation by RTx [5]: sensitive to RTx
- channel activation by RTx [6]: retained RTx sensitivity
- Hill slope (nH) [7]: 0.6
- Kd ([7]; read-out: Kd of 3H-RTx binding (Hill fit)): 30 nM
- dissociation of RTx after removal from the recording chamber [8]: could readily see dissociation of RTx
